Laboratory results published in US4138492A, “Aromatic amides of heterocyclic compounds and therapeutic compositions containing same” (priority 1974, dated 1979).

Key:
[1] = test system: apomorphine-induced gnawing; assay: Antiapomorphine activity (apomorphine-induced gnawing) in the rat; assay type: in vivo
Excerpt: A number of the compounds of the present invention were screened in parallel with metoclopramide for potential anti-emetic effects against apomorphine-induced gnawing in the rat and as local anaesthetics on the rat sciatic nerve (Table I).
*Antiapomorphine activity in rat scored as […]

gastric emptying = assay: Decrease of gastric emptying time in rats; assay type: in vivo, rat; conditions: compared with metoclopramide
[2] = test system: apomorphine-induced vomiting; assay: Apomorphine-induced vomiting in the dog; assay type: in vivo
[3] = Local anaesthetic activity in mice; assay type: in vivo; conditions: compared with metoclopramide or procaine
[4] = test system: electrically induced convulsions; assay: Electrically induced convulsions in mice; assay type: in vivo; conditions: mouse, in vivo
[5] = test system: convulsions induced by leptazol; assay: Leptazol-induced convulsions in the mouse; assay type: in vivo
[6] = test system: cardiovascular and respiratory systems; assay: Cardiovascular and respiratory effects in cats anaesthetized with chloralose; assay type: in vivo
Excerpt: HCl-Clebopride salt has weak effects on the cardiovascular and respiratory systems.

autonomic nervous system = assay: Effect on the autonomic nervous system; conditions: in vivo
inflammation = assay: Anti-inflammatory activity; conditions: in vivo
parasympathetic system = assay: Parasympatholytic activity; conditions: in vivo
[7] = Metabolism and pharmacokinetics in the rat; assay type: in vivo
[8] = Metabolism and pharmacokinetics in the rabbit; assay type: in vivo
[9] = Therapeutic effect and side effects in humans; assay type: in vivo; conditions: suitable doses
Description: They may be used in doses of from 0.1 to 1000 mg per day for the treatment of nausea and vomiting due to gastrointestinal disorders, congestive heart failure, post operative conditions, etc., other gastrointestinal tract disorders such as dyspepsia, flatulence, bile regurgitations, hiatus hernia, peptic ulcer, reflux aerophagitis, gastritis, duodenitis and cholethiasis, and as an adjunt to radiography of the gastrointestinal tract and for overcoming gastrointestinal stasis for diagnostic or therapeutic purposes and a variety of conditions affecting the central nervous system such as acute and chronic psychoses, maniacal psychosis, schizophrenias, serious disturbances of behavior and non-melancholic depressive state and migraine.
A number of the instant compounds, particularly the hydrogen chloride, malate and methanesulfonate salts of Clebopride have been extensively tested in humans to determine maximum dosages and the therapeutic effects of the compounds. These compounds have been administered to humans orally and parenterally.
Dosages of between 0.1 and 30 mg per day have been shown useful depending upon the length of treatment and therapeutic effect desired.

[10] = test system: spontaneous motor activity; assay: Spontaneous motor activity in the mouse
incoordination = assay: Incoordination on accelerating rota-rod in the mouse
[11] = cats, slow intravenous infusion 1 mg/kg/min. to total 10 mg/kg

Which ED50 ([1]; Rattus norvegicus, po, per os, Table I, read-out: ED50 Values) does the source give for `COc1cc(N)c(Cl)cc1C(=O)NC1CCN(Cc2ccccc2)CC1` [Compound 2, N-[4'-(1'-benzyl)-piperidyl]-2-methoxy-4-amino-5-chloro-benzamide] here?
The ED50 was ~3 mg/kg.

What about the “activity as an anti-emetic” value ([1]; compared with metoclopramide, from Table I) of the same compound?
The value was “more active as an anti-emetic”.

What about the “ability to decrease gastric emptying time, potency” value (gastric emptying) of the same compound?
Its value is “potency similar to that of metoclopramide”.

And the “activity against apomorphine-induced vomiting” value [2]?
Its value is “high activity”.

And the ED50 ([2]; Canis lupus familiaris, po, per os, Table II, read-out: ED50 (95% confidence limits), apomorphine induced vomiting)?
The ED50 was 0.0435 mg/kg.

What about the “potency relative to metoclopramide” value ([2]; oral route) of the same compound?
Its value is “approximately 8 times”.

And the local anaesthetic potency [3]?
The local anaesthetic potency was “somewhat greater than that of either metoclopramide or procaine”.

And the anti-convulsant activity [4]?
Its anti-convulsant activity is “has anti-convulsant activity”.

What about the “inhibition of clonic seizures induced by leptazol” value [5] of the same compound?
The value was “apparently not clonic seizures”.

What about the “inhibition of tonic convulsions (antileptazol)” value [5] of the same compound?
Its value is “inhibits tonic convulsions”.

What about the blood pressure [6, 11] of the same compound?
Its blood pressure is “slight fall”.

And the heart rate [6, 11]?
Its heart rate is “slight fall”.

And the respiratory movements [6, 11]?
Its respiratory movements is “slowing of respiratory movements”.

What about the “effects on the cardiovascular and respiratory systems” value ([6]; in vivo) of the same compound?
Its value is “weak effects”.

What about the “effect on the autonomic nervous system” value (autonomic nervous system) of the same compound?
Its value is “does not have an appreciable effect”.

What about the anti-inflammatory activity (inflammation) of the same compound?
The anti-inflammatory activity was “weak anti-inflammatory activity”.

What about the parasympatholytic activity (parasympathetic system) of the same compound?
The parasympatholytic activity was “no appreciable parasympatholytic activity”.

And the N-Debenzylation [7]?
The N-Debenzylation was “major metabolic reaction”.

And the “cleavage of the amide bond” value [7]?
The value was “does not appear to be a major matabolic reaction”.

And the extent of metabolism [7]?
Its extent of metabolism is “extensively metabolized”.

What about the “unchanged drug excreted in the urine” value [7] of the same compound?
Its value is “Only very little”.

What about the N-Debenzylation [8] of the same compound?
The N-Debenzylation was “major metabolic reaction”.

What about the “cleavage of the amide bond” value [8] of the same compound?
Its value is “does not appear to be a major matabolic reaction”.

And the “conjugation with glucuronic acid and/or sulphate” value [8]?
The value was “occurs at a large extent in the rabbit”.

What about the extent of metabolism [8] of the same compound?
Its extent of metabolism is “extensively metabolized”.

What about the “unchanged drug excreted in the urine” value [8] of the same compound?
The value was “Only very little”.

What about the side effects [9] of the same compound?
The side effects was “virtually free of side effects”.

What about the spontaneous motor activity [10] of the same compound?
Its spontaneous motor activity is “inhibit spontaneous motor activity”.

What about the incoordination (incoordination) of the same compound?
Its incoordination is “cause incoordination”.
